Results: ChEMBL document CHEMBL4219231, “Nε-Acryloyllysine Piperazides as Irreversible Inhibitors of Transglutaminase 2: Synthesis, Structure-Activity Relationships, and Pharmacokinetic Profiling” (J Med Chem, 2018)
≈ marks a conversion by molar mass, not a printed value. Calls of active or inactive are those of the source. The rule behind the calls is not given here.

Assays:
Homo sapiens [1] = species: Homo sapiens; assay: Selectivity index, ratio of Kinact/Ki for human TGase 2 to Kinact/Ki for human Factor 13a
[2] = Chromatographic hydrophobicity index in immobilized artificial membrane at pH 7.4 by HPLC method; type: ADME, cell membranes
[3] = Inhibition of guinea pig TGase 2 using F-Cad/DMC as substrate preincubated for 30 mins followed by substrate addition measured at 30 secs interval over 900 secs by fluorescence anisotropy assay; design: species or system Cavia porcellus
[4] = Membrane retention, RM of the compound; type: physicochemical
[5] = Thermodynamic solubility of the compound in 0.01 M phosphate buffer at pH 7.4 at 22 degC after 26 hrs by UPLC-DAD-MS analysis; type: physicochemical; conditions: read-out: Therm_solubility
[6] = n-octanol-phosphate buffer partition coefficient, log D of compound at pH 7.4 by 19F NMR analysis; type: physicochemical
[7] = target: T1, Protein-glutamine gamma-glutamyltransferase (Homo sapiens, UniProt P21980); assay: Inhibition of human TGase 2 using R-I-Cad/DMC as substrate preincubated for 5 mins followed by substrate addition measured at 30 secs interval over 900 secs by fluorescence anisotropy assay
T1 sequence (P21980 whole entry): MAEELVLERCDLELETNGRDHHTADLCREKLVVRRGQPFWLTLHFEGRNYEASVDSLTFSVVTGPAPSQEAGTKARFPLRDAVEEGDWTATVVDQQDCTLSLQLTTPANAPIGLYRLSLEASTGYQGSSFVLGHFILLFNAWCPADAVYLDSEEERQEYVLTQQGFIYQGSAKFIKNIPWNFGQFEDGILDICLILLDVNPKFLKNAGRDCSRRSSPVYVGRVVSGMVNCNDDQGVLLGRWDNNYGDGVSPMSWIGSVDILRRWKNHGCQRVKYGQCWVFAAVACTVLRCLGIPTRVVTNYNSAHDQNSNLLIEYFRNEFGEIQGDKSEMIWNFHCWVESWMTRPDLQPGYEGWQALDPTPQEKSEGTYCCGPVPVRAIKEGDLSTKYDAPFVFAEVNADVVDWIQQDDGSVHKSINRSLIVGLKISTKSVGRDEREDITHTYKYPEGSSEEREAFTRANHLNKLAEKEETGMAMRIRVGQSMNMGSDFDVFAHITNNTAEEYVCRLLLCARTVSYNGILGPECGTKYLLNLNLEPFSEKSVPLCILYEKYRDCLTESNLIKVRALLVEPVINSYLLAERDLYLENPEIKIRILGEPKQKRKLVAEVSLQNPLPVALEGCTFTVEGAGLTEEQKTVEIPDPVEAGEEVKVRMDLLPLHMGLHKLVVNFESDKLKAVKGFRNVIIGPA

Homo sapiens [8] = species: Homo sapiens; assay: Selectivity index, ratio of Kinact/Ki for human TGase 2 to Kinact/Ki for human TGase 6
[9] = Drug metabolism in mouse liver microsomes assessed as metabolic transformation at pyridylpiperazine moiety at 100 uM measured after 60 mins by EPI-mass spectroscopy; type: ADME, microsome; conditions: 1 h
[10] = Metabolic stability in mouse liver microsomes assessed as parent compound remaining at 100 uM measured after 60 mins by HPLC-UV analysis; type: ADME, microsome; conditions: microsomes, 1 h, 100 µM
in vitro = conditions: PAMPA
Description: Effective permeability of the compound by PAMPA assay

Homo sapiens [11] = species: Homo sapiens; assay: Selectivity index, ratio of Kinact/Ki for human TGase 2 to Kinact/Ki for human TGase 1
[12] = target: T1, Protein-glutamine gamma-glutamyltransferase; assay: Inhibition of TGase 2 in human A375 cells using R-I-Cad/DMC as substrate preincubated for 5 mins followed by substrate addition measured at 30 secs interval over 900 secs by fluorescence anisotropy assay; type: cell-based
[13] = target: T1, Protein-glutamine gamma-glutamyltransferase; assay: Reversible inhibition of human TGase 2 using Z-Glu(HMC)-Gly-OH as substrate measured at 20 secs interval over 900 secs by fluorimetric assay
Homo sapiens [14] = species: Homo sapiens; assay: Selectivity index, ratio of Kinact/Ki for human TGase 2 to Kinact/Ki for human TGase 3
[15] = Thermodynamic solubility of the compound in 0.01 M phosphate buffer at pH 7.4 at 22 degC after 39 hrs by UPLC-DAD-MS analysis; type: physicochemical; conditions: read-out: Therm_solubility
[16] = target: T2, Protein-glutamine gamma-glutamyltransferase (Homo sapiens) (UniProt P21980); assay: Irreversible inhibition of human TGase 2 using Z-Glu(HMC)-Gly-OH as substrate up to 25 uM measured at 20 secs interval over 900 secs by fluorimetric assay
T2 sequence (whole entry): T1 sequence (P21980 whole entry)

| Selectivity Index (Homo sapiens [1]) | CHI [2] | IC50 [3] | Rm [4] | solubility thermodynamic at 26 h [5] | logD [6] | IC50 [7] | Selectivity Index (Homo sapiens [8]) | Drug metabolism [9] | Stability [10] | Papp (in vitro) | Selectivity Index (Homo sapiens [11]) | IC50 [12] | Ki [13] | Selectivity Index (Homo sapiens [14]) | solubility thermodynamic at 39 h [15] | inhibition [16] | SMILES |
| --- | --- | --- | --- | --- | --- | --- | --- | --- | --- | --- | --- | --- | --- | --- | --- | --- | --- |
| 275 to 1920 | 31.8 | 200 nM | 14% | 645 µM (≈ 311 µg/mL) | 2.1 | 110 nM | 275 to 1920 | Metabolite_Detected | Unstable | 13.3 ×10⁻⁶ cm/s | 275 to 1920 | 1100 nM | 6280 nM | 275 to 1920 | – | – | C=CC(=O)NCCCC[C@H](NC(=O)Cc1ccccc1)C(=O)N1CCN(c2cccc(F)n2)CC1 |
| 275 to 1920 | 30.7 | 120 nM | 10% | – | – | 100 nM | 275 to 1920 | – | – | 9.16 ×10⁻⁶ cm/s | 275 to 1920 | 400 nM | 2260 nM | 275 to 1920 | 452 µM (≈ 230 µg/mL) | Active | C=CC(=O)NCCCC[C@H](NC(=O)Cc1ccccc1)C(=O)N1CCN(c2cccc([N+](=O)[O-])n2)CC1 |
